Measured values reported in US10774047B2 (THE TRUSTEES OF THE UNIVERSITY OF PENNSYLVANIA, priority 2015, dated 2020).
Entries after “also recorded” stand apart in the source; their conditions may differ.

Assays:
G43 cells [1] = assay: MTT viability of 4664 and G43 KPC pancreatic cancer cells; format: cell-based, mouse; conditions: 72 hr
Protocol: FIG. 6: DQ661 potentiates in vivo activity of gemcitabine in KPC pancreatic cancer syngeneic model. (A) 4664 and G43 cells were treated with gemcitabine (72 hr, 3-30 nM). MTT was subsequently added and cell viability was determined by standardizing absorbance to control wells. (B) G43 cells were treated chronically for 2 weeks with gemcitabine (3-30 nM) in the presence or absence of DQ661 (30-300 nM) in colony formation assays. Cells were subsequently stained with crystal violet and imaged. (C) A schematic for how mice were treated in (D). […]
For MTT assays, cells were plated in 96-well plates (2,000 cells/well), allowed to adhere overnight, and subsequently treated in triplicate for 72 hours. MTT reagent (Roche) was applied, cells were solubilized and absorbance was read at 570 nm, with background subtraction at 690 nm. […] Cells were subsequently stained with crystal violet and quantified. […]

G43 cells [2] = assay: G43 KPC pancreatic cancer syngeneic model; format: in vivo, C57BL/6 mice; conditions: gemcitabine 120 mg/kg i.p. once; DQ661 4 mg/kg i.p. 2 days on 3 days off
Protocol: FIG. 6: DQ661 potentiates in vivo activity of gemcitabine in KPC pancreatic cancer syngeneic model. (A) 4664 and G43 cells were treated with gemcitabine (72 hr, 3-30 nM). MTT was subsequently added and cell viability was determined by standardizing absorbance to control wells. (B) G43 cells were treated chronically for 2 weeks with gemcitabine (3-30 nM) in the presence or absence of DQ661 (30-300 nM) in colony formation assays. Cells were subsequently stained with crystal violet and imaged. (C) A schematic for how mice were treated in (D). G43 cells were injected into C57BL/6 mice (2×10^6 cells/mouse. Once palpable, mice were treated with vehicle (water, PBS), gemcitabine (120 mg/kg, i.p., once at day 6), DQ661 (4 mg/kg, i.p., starting on day 7 according to the regimen of 2 days on treatment followed by 3 days off treatment) or a combination of gemcitabine and DQ661. (D) Average tumor volumes for each treatment arm are shown. Each point represents the mean of N=8 mice per treatment arm and the error bars represent s.e. (E) Tumor growth rate from (D).
Five to seven-week old NOD-scid gamma (NSG) mice (Jackson Laboratory) were used for xenograft studies with the 1205Lu melanoma cell line. […] Perpendicular tumor diameters were measured sing electronic calipers and volume was calculated leveraging the formula L×W^2×0.5, where L is the longest dimension and W is the perpendicular dimension. […]

451Lu (melanoma) cells = assay: Bafilomycin clamp experiment (autophagic flux); format: cell-based; conditions: 3 μM, with or without bafilomycin-A1, 24 hours
[3] = system: ATG5 WT and ATG5-null MEFs; assay: Long-term colony formation in ATG5+/+ and ATG5-/- MEFs; format: cell-based; conditions: 2 weeks, 10-300 nM
Protocol: (G) Long-term colony formation assays were performed with ATG5+/+ and ATG5−/− MEFs treated with DQ661 (2 weeks, 10-300 nM). Cells were subsequently stained with crystal violet and imaged.
The clonogenic assay was performed as previously described. Briefly, cells were suspended in appropriate culture media, and plated in 6-well plates (2×10^3 cells/well). Medium was changed and drug treatment refreshed every 3-4 days for 2 weeks. Cells were subsequently stained with crystal violet and quantified.

A375P cells = assay: Galectin-3 punctae assay (lysosomal membrane permeabilization); format: cell-based; conditions: 6 hours (LLOMe 3 hr, 2 mM)
Protocol: FIG. 3: Central nitrogen methylation status dictates DNA damage versus lysosomal membrane permeability. […] Cells were imaged with fluorescent microscopy, phospho-H2AX+ cells were scored using ImageJ software analysis and quantified to the right. (B) A375P cells were treated identical to the conditions in (A), with the addition of the positive control LLoMe (3 hr, 2 mM). Cells were subsequently stained with galectin-3 and imaged with fluorescent microscopy. The formation of galectin-3 punctae, which signify lysosomal membrane permeabilization, are pointed out with yellow arrows.
When lysosomes are healthy, galectin-3 is uniformly dispersed throughout the cell. However, when the lysosome is damaged, galectin-3 rapidly localizes to the site of damaged lysosomes, appearing as punctae and marking individual leaky lysosomes.

[4] = system: 1205Lu melanoma xenografts; assay: 1205Lu melanoma xenograft model; format: in vivo, NSG mice
Protocol: (§1) FIG. 5: DQ661 has significant single-agent in vivo activity in melanoma xenograft model. […]. Mice were randomly split into 4 arms and treated with vehicle control (water, i.p.), quinacrine (8 mg/kg, i.p.), DQ660 (8 mg/kg, i.p.) or DQ661 (8 mg/kg, i.p.). Treatments were given as shown by the black arrows, following a regimen of 2 days on treatment followed by 2 days off treatment. (C) Representative electron micrographs from melanoma xenograft tumors harvested after 2 days of treatment according to (B). (D) Average tumor volumes for each treatment arm are shown. Each point represents the mean of N=8 mice per treatment arm and the error bars represent standard error (s.e.) (C) Representative EM for tumors treated in each arm. (E) A schematic for how mice were treated in (F). […]. Mice were randomly split into 3 arms and treated with water (i.p.), DQ661 (2 mg/kg, i.p.) or DQ661 (4 mg/kg, i.p.). Treatments were give as shown by the black arrows, following a regimen of 2 days on treatment followed by 2 days […]. Tumor volume is shown. Each point represents the mean of N=8 mice per treatment arm and the error bars represent s.e. (G) Average tumor growth rate for each treatment arm are shown. (H) Protein lysate was harvested from mouse tumors at the end of the experiment and immunoblotted for LC3B, phospho-4E-BP1 T37_T65, phospho-4E-BP1 S240_S244 and Actin. Quantification of proteins standardized to control mice levels are shown to the right.
(§2) Five to seven-week old NOD-scid gamma (NSG) mice (Jackson Laboratory) were used for xenograft studies with the 1205Lu melanoma cell line. Tumor generation, tumor measurement and tumor harvesting performed as previously described (ref). For the pancreatic cancer model, five to seven-week old C57BL/6 mice (Jackson Laboratory) and maintained under pathogen-free conditions. 2×10^6 G43 cells were subcutaneously injected with an equal volume of matrigel (BD) over the right flank […] and tumors became palpable after 5-6 days. Mice were enrolled on day 6 and given Gemcitabine (120 mg/kg, i.p.). DQ661 (4 mg/kg, i.p.) was given on days 7, 8, 12, 13, 17 and 18. Perpendicular tumor diameters were measured sing electronic calipers and volume was calculated leveraging the formula L×W^2×0.5, where L is the longest dimension and W is the perpendicular dimension. All animal experiments were performed in accordance to the protocols approved by the Institute of Animal Care and Use Committee of the University of Pennsylvania.
. After 1-2 weeks, tumors were palpable and mice were treated with vehicle control (water), quinacrine (8 mg/kg), DQ660 (8 mg/kg) or DQ661 (8 mg/kg) i.p (FIG. 5A). […]. Therefore another 1205Lu xenograft experiment was performed with mice treated with either vehicle control (water, n=6) or DQ661 (2 or 4 mg/kg, n=6) for a period of 14 days (FIG. 5e, 5F).

[5] = Tolerability in 1205Lu xenograft-bearing mice; format: in vivo
Protocol: as §1, §2
. After 1-2 weeks, tumors were palpable and mice were treated with vehicle control (water), quinacrine (8 mg/kg), DQ660 (8 mg/kg) or DQ661 (8 mg/kg) i.p (FIG. 5A). […]. […]

mTORC1 [6] = assay: mTOR / LAMP2 co-localization imaging; conditions: A375P cells, 6 hours, 3 μM
mTORC1 [7] = assay: Immunoblot of mTORC1 signaling and LC3B, panel of lysosomal inhibitors; conditions: A375P cells
autophagy = conditions: background; cited from earlier work

Nc1ccn([C@@H]2O[C@H](CO)[C@@H](O)C2(F)F)c(=O)n1 [gemcitabine, reference compound]
sensitivity of G43 cells relative to parental 4664 cells (G43 cells [1]): resistant to gemcitabine, relative to the parental treatment naïve 4664 cells
tumor growth (G43 cells [2]): significantly impaired

COc1ccc2nc3cc(Cl)ccc3c(NCCCCCCN(C)CCCCCCNc3c4ccc(Cl)cc4nc4ccc(OC)cc34)c2c1 [DQ 661]
effect on autophagic flux (LC3II/LC3I ratio with vs without bafilomycin-A1) (451Lu (melanoma) cells): autophagy inhibitors
cytotoxicity in ATG5 WT vs ATG5-null MEFs [3]: equal cytotoxicity in ATG5 WT and ATG5-null MEFs; also recorded: equivalent activity
galectin-3 staining pattern (A375P cells): punctate distribution of galectin-3
tumor growth ([4]; 8 mg/kg i.p., 2 days on / 2 days off): inhibited tumor growth to the greatest extent
autophagy in tumors (electron microscopy) ([4]; 8 mg/kg i.p., tumors harvested after 2 days of treatment): inhibited autophagy as seen by electron microscopy of mouse tumors
tumor growth rate ([4]; 2 or 4 mg/kg i.p., 14 days): significantly slower rates of growth
tumor volume and tumor weight ([4]; 2 or 4 mg/kg i.p., 14 days): significant reduction in tumor volume and tumor weight compared to control mice
Western blotting of tumor lysate (LC3, p62, phospho-4EBP1, phospho-S6) ([4]; 2 or 4 mg/kg i.p., end of experiment): concurrent in vivo autophagy inhibition and mTORC1 inhibition
clinical outcome by day 7 ([5]; 8 mg/kg i.p.): all mice were euthanized due to lethargy and bowel distension
histological analysis of the intestines and liver ([5]; 8 mg/kg i.p.): Paneth cell dysfunction
weight loss of mice ([5]; 8 mg/kg i.p.): greater than 10%
mice weight ([5]; 2 or 4 mg/kg i.p., 14 days): without significantly effect mice weight
tumor growth (G43 cells [2]): significantly impaired
mTOR and lysosomal (LAMP2) co-localization (mTORC1 [6]): loss of mTOR and lysosomal co-localization
autophagy inhibition (accumulation of LC3II/LC3I levels) among lysosomal inhibitors (mTORC1 [7]; 3 μM): greatest ability to inhibit autophagy among the entire panel of lysosomal inhibitors
S6K (and 4E-BP1) phosphorylation (mTORC1 [7]; DQ661 3 μM, PET 10 μM, Bafilomycin A1 100 nM): inhibit S6K and 4E-BP1 to a similar degree as the classical control of amino acid starvation
mTORC1 activity (Western blotting) (mTORC1 [7]; DQ661 3 μM, Pepstatin A 10 μG/mL, Siramesine 8 μM): potently inhibits mTORC1 activity

CCN(CCO)CCCC(C)Nc1ccnc2cc(Cl)ccc12 (centres unmarked) [HCQ, hydroxychloroquine]
concentrations required to inhibit autophagy (autophagy): High micromolar concentrations
